One assay addresses human Factor XIa (Homo sapiens (Human), UniProt P03951). Nature of the assay: Factor XIa Assay (fluorogenic substrate GPR-AFC). The format is biochemical. The conditions noted are these: Factor XIa (FXIa).
The next assay has as its target Human plasma kallikrein (Homo sapiens (Human), UniProt P03952). Nature of the assay: Kallikrein Assay (fluorogenic substrate Acetyl-K-P-R-AFC). The settings on record: Plasma Kallikrein (PKal). Type of assay: biochemical. The procedure, abridged: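 Ki is derived from IC50 with the Cheng-Prusoff equation, and IC50 from the inflection point of a four-parameter logistic curve. The rate of AFC release is read with 0.5 nM purified enzyme and […] substrate at room temperature or 37 °C.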

human Factor XIa, sequence (P03951 388-625 limits assumed): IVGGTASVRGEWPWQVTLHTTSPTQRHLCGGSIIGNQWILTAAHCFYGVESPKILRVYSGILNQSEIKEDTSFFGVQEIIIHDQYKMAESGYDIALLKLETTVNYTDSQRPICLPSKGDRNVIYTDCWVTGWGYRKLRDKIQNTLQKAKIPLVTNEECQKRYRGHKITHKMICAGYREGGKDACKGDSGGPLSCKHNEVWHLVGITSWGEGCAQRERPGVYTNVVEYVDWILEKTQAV
human Factor XIa, sequence (P03951 19-387 partner limits assumed): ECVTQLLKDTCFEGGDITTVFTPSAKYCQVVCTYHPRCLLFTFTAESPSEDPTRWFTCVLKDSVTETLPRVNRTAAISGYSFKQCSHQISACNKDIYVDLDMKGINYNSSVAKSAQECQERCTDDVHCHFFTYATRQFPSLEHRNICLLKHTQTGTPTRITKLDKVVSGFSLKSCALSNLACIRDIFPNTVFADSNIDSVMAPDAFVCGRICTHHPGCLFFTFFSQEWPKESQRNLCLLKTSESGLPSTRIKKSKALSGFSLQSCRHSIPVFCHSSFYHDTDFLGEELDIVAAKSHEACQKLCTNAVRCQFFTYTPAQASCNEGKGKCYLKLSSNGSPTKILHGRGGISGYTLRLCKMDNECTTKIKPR
Human plasma kallikrein, sequence (P03952 391-638): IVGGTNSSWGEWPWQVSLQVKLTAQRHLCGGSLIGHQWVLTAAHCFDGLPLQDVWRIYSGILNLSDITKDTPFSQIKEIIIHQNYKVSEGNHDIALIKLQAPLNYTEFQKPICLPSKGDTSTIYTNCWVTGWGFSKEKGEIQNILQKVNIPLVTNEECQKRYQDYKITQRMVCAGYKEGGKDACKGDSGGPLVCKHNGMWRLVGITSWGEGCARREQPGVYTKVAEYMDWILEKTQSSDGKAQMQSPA
Human plasma kallikrein, sequence (P03952 20-390 partner): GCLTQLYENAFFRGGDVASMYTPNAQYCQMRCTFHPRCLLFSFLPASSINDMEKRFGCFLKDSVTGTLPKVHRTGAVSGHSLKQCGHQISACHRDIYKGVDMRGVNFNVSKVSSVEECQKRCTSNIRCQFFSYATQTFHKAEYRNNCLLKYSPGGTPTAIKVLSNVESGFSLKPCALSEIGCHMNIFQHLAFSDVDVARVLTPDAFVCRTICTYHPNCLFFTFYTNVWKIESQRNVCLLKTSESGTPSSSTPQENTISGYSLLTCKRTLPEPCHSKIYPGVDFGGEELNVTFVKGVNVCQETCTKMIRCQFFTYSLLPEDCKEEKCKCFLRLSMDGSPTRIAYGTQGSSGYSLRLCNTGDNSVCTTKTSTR

As for `Cc1nc(N2C[C@H]3C[C@H]3C2=O)ncc1Cn1cc(NC(=O)c2nc(-c3c(C(F)F)ccc(Cl)c3F)cnc2CO)cn1` [Example 156, 6-(3-Chloro-6-(difluoromethyl)-2-fluorophenyl)-3-(hydroxymethyl)-N-(1-((4-methyl-2-((1R,5S)-2-oxo-3-azabicyclo[3.1.0]hexan-3-yl)pyrimidin-5-yl)methyl)-1H-pyrazol-4-yl)pyrazine-2-carboxamide], the IC50 at human Factor XIa was determined as 162 nM; on Human plasma kallikrein, 0.9 nM.
As for `C=Cc1ncc(-c2c(C(F)F)ccc(Cl)c2F)nc1C(=O)Nc1cnn(Cc2cnc(N3C[C@H]4C[C@H]4C3=O)nc2C)c1` [Example 35, 6-(3-Chloro-6-(difluoromethyl)-2-fluorophenyl)-N-(1-((4-methyl-2-((1R,5S)-2-oxo-3-azabicyclo[3.1.0]hexan-3-yl)pyrimidin-5-yl)methyl)-1H-pyrazol-4-yl)-3-vinylpyrazine-2-carboxamide], the results for the IC50 at human Factor XIa and on Human plasma kallikrein were 4940 nM and 6.8 nM, respectively.
In the same order, the values of `Cc1ncc(-c2c(OC(F)F)ccc(Cl)c2F)nc1C(=O)Nc1cnn(C(C)c2cnc(N3C[C@H]4C[C@H]4C3=O)c(C)n2)c1` (single isomer, unassigned) [Example 123, 6-(3-Chloro-6-(difluoromethoxy)-2-fluorophenyl)-3-methyl-N-(1-((S or R)-1-(6-methyl-5-((1R,5S)-2-oxo-3-azabicyclo[3.1.0]hexan-3-yl)pyrazin-2-yl)ethyl)-1H-pyrazol-4-yl)pyrazine-2-carboxamide] are 364 nM and 1 nM.
As for `Cc1cc(Cn2cc(NC(=O)c3nc(-c4c(C(F)F)ccc(Cl)c4F)cnc3C)cn2)cnc1N1C[C@H]2C[C@H]2C1=O` [Example 41, 6-(3-Chloro-6-(difluoromethyl)-2-fluorophenyl)-3-methyl-N-(1-((5-methyl-6-((1R,5S)-2-oxo-3-azabicyclo[3.1.0]hexan-3-yl)pyridin-3-yl)methyl)-1H-pyrazol-4-yl)pyrazine-2-carboxamide], the IC50 against human Factor XIa was 53 nM; at Human plasma kallikrein it was 0.2 nM.
As for `C[C@@H](c1cnc(N2C[C@H]3C[C@H]3C2=O)nc1)n1cc(NC(=O)c2nc(-c3c(C(F)F)ccc(Cl)c3F)cnc2CO)cn1` [Example 193], the IC50 came to 441 nM on human Factor XIa and 0.4 nM against Human plasma kallikrein.
Turning to `COc1nc(N2C[C@H]3C[C@H]3C2=O)ncc1Cn1cc(NC(=O)c2nc(-c3c(C(F)F)ccc(Cl)c3F)cnc2C)cn1` [Example 95, 6-(3-Chloro-6-(difluoromethyl)-2-fluorophenyl)-N-(1-((4-methoxy-2-((1R, 5S)-2-oxo-3-azabicyclo[3.1.0]hexan-3-yl)pyrimidin-5-yl)methyl)-1H-pyrazol-4-yl)-3-methylpyrazine-2-carboxamide], the figures for the IC50 against human Factor XIa and against Human plasma kallikrein were 4590 nM and 14.3 nM, respectively.
In the same order, the values of `Cc1c(C(C)n2cc(NC(=O)c3nc(-c4c(C(F)F)ccc(Cl)c4F)cnc3CO)cn2)cnc(N2C[C@H]3C[C@H]3C2=O)c1C` (single isomer, unassigned) [Example 201, 6-(3-Chloro-6-(difluoromethyl)-2-fluorophenyl)-N-(1-((S or R)-1-(4,5-dimethyl-6-((1R,5S)-2-oxo-3-azabicyclo[3.1.0]hexan-3-yl)pyridin-3-yl)ethyl)-1H-pyrazol-4-yl)-3-(hydroxymethyl)pyrazine-2-carboxamide] are 52 nM and 0.4 nM.
In the case of `Cc1cc([C@@H](C)n2cc(NC(=O)c3nc(-c4c(OC(F)F)ccc(Cl)c4F)cnc3CO)cn2)cnc1N1C[C@H]2C[C@H]2C1=O` [Example 227, 6-(3-Chloro-6-(difluoromethoxy)-2-fluorophenyl)-3-(hydroxymethyl)-N-(1-((R)-1-(5-methyl-6-((1R,5S)-2-oxo-3-azabicyclo[3.1.0]hexan-3-yl)pyridin-3-yl)ethyl)-1H-pyrazol-4-yl)pyrazine-2-carboxamide], the IC50 against human Factor XIa amounted to 25 nM; against Human plasma kallikrein, 0.6 nM.
As to `Cc1ncc(-c2c(C(F)F)ccc(Cl)c2F)nc1C(=O)Nc1cnn(Cc2cnc(N3C[C@H]4C[C@H]4C3=O)c(C)n2)n1` [Example 186, 6-(3-Chloro-6-(difluoromethyl)-2-fluorophenyl)-3-methyl-N-(2-((6-methyl-5-((1R,5S)-2-oxo-3-azabicyclo[3.1.0]hexan-3-yl)pyrazin-2-yl)methyl)-2H-1,2,3-triazol-4-yl)pyrazine-2-carboxamide], the results for the IC50 at human Factor XIa and on Human plasma kallikrein were 1380 nM and 1.4 nM, respectively.
Consider `CC(c1cnc(N2C[C@H]3C[C@H]3C2=O)c(F)c1)n1cc(NC(=O)c2nc(-c3c(C(F)F)ccc(Cl)c3F)cnc2COC(C)(C)C)cn1` (single isomer, unassigned) [Example 144, 3-(tert-Butoxymethyl)-6-(3-chloro-6-(difluoromethyl)-2-fluorophenyl)-N-(1-((R or S)-1-(5-fluoro-6-((1R,5S)-2-oxo-3-azabicyclo[3.1.0]hexan-3-yl)pyridin-3-yl)ethyl)-1H-pyrazol-4-yl)pyrazine-2-carboxamide], for which the IC50 was above 10000 nM on human Factor XIa and 1.6 nM against Human plasma kallikrein.
Taken in the same sequence, the figures for `Cc1nc(C(C)n2cc(NC(=O)c3cncc(-c4c(C(F)F)ccc(Cl)c4F)n3)cn2)ccc1N1C[C@H]2C[C@H]2C1=O` (single isomer, unassigned) [Example 60, 6-(3-Chloro-6-(difluoromethyl)-2-fluorophenyl)-N-(1-((S or R)-1-(6-methyl-5-((1R,5S)-2-oxo-3-azabicyclo[3.1.0]hexan-3-yl)pyridin-2-yl)ethyl)-1H-pyrazol-4-yl)pyrazine-2-carboxamide] were above 10000 nM and 5.5 nM.
In the same order, the values of `Cc1ncc(-c2c(C#N)ccc(Cl)c2F)nc1C(=O)Nc1cnn(C(C)c2cnc(N3C[C@H]4C[C@H]4C3=O)c(C)n2)c1` (single isomer, unassigned) [Example 234, 6-(3-Chloro-6-cyano-2-fluorophenyl)-3-methyl-N-(1-((R or S)-1-(6-methyl-5-((1R,5S)-2-oxo-3-azabicyclo[3.1.0]hexan-3-yl)pyrazin-2-yl)ethyl)-1H-pyrazol-4-yl)pyrazine-2-carboxamide] are 679 nM and 1 nM.
As for `COc1c(N2C[C@H]3C[C@H]3C2=O)ncc(C(C)n2cc(NC(=O)c3cncc(-c4c(C(F)F)ccc(Cl)c4F)n3)cn2)c1C` (single isomer, unassigned) [Example 154, 6-(3-Chloro-6-(difluoromethyl)-2-fluorophenyl)-N-(1-((R or S)-1-(5-methoxy-4-methyl-6-((1R,5S)-2-oxo-3-azabicyclo[3.1.0]hexan-3-yl)pyridin-3-yl)ethyl)-1H-pyrazol-4-yl)pyrazine-2-carboxamide], the IC50 against human Factor XIa is 661 nM; against Human plasma kallikrein, 0.3 nM.
Taken in the same sequence, the figures for `Cc1cc(C(C)n2cc(NC(=O)c3nc(-c4c(C#N)ccc(Cl)c4F)cnc3C)cn2)cnc1N1C[C@H]2C[C@H]2C1=O` (single isomer, unassigned) [Example 139, 6-(3-Chloro-6-cyano-2-fluorophenyl)-3-methyl-N-(1-((S or R)-1-(5-methyl-6-((1R,5S)-2-oxo-3-azabicyclo[3.1.0]hexan-3-yl)pyridin-3-yl)ethyl)-1H-pyrazol-4-yl)pyrazine-2-carboxamide] were 282 nM and 0.9 nM.
Taken in the same sequence, the figures for `Cc1nc(Cn2cc(NC(=O)c3nc(-c4c(C(F)F)ccc(Cl)c4F)cnc3C(F)F)cn2)cnc1N1C[C@H]2C[C@H]2C1=O` [Example 94, 6-(3-Chloro-6-(difluoromethyl)-2-fluorophenyl)-3-(difluoromethyl)-N-(1-((6-methyl-5-((1R, 5S)-2-oxo-3-azabicyclo[3.1.0]hexan-3-yl)pyrazin-2-yl)methyl)-1H-pyrazol-4-yl)pyrazine-2-carboxamide] were 1010 nM and 1.6 nM.
Consider `Cc1ncc(-c2c(C(F)F)ccc(Cl)c2F)nc1C(=O)Nc1cnn(C(C)c2cnc(N3C[C@H]4C[C@H]4C3=O)c(C)n2)c1` (single isomer, unassigned) [Example 15, 6-(3-Chloro-6-(difluoromethyl)-2-fluorophenyl)-3-methyl-N-(1-((R or S)-1-(6-methyl-5-((1R,5S)-2-oxo-3-azabicyclo[3.1.0]hexan-3-yl)pyrazin-2-yl)ethyl)-1H-pyrazol-4-yl)pyrazine-2-carboxamide], for which the IC50 at human Factor XIa amounted to 992 nM; at Human plasma kallikrein it was 0.4 nM.
For the compound `C[C@@H](c1cnc(N2C[C@H]3C[C@H]3C2=O)nc1)n1cc(NC(=O)c2nc(-c3c(C(F)F)ccc(Cl)c3F)cnc2C(F)F)cn1` [Example 174, 6-(3-Chloro-6-(difluoromethyl)-2-fluorophenyl)-3-(difluoromethyl)-N-(1-((S)-1-(2-((1R,5S)-2-oxo-3-azabicyclo[3.1.0]hexan-3-yl)pyrimidin-5-yl)ethyl)-1H-pyrazol-4-yl)pyrazine-2-carboxamide], the IC50 at human Factor XIa stood at 9350 nM; on Human plasma kallikrein, 6.5 nM.
In the same order, the values of `Cc1ncc(-c2c(C(F)F)ccc(Cl)c2F)nc1C(=O)Nc1cnn(C(C)c2cnc(N3C[C@H]4C[C@H]4C3=O)c(F)c2)c1` (single isomer, unassigned) [Example 52, 6-(3-Chloro-6-(difluoromethyl)-2-fluorophenyl)-N-(1-((R or S)-1-(S-fluoro-6-((1R,5S)-2-oxo-3-azabicyclo[3.1.0]hexan-3-yl)pyridin-3-yl)ethyl)-1H-pyrazol-4-yl)-3-methylpyrazine-2-carboxamide] are 4830 nM and 1.1 nM.
For `Cc1c(Cn2cc(NC(=O)c3cncc(-c4c(C(F)F)ccc(Cl)c4F)n3)cn2)ccc(N2C[C@H]3C[C@H]3C2=O)c1C` [Example 48], the IC50 against human Factor XIa is above 10000 nM; on Human plasma kallikrein it was 0.6 nM.
Take `Cc1nc(C(C)n2cc(NC(=O)c3cncc(-c4c(C(F)(F)F)ccc(Cl)c4F)n3)cn2)cnc1N1C[C@H]2C[C@H]2C1=O` (single isomer, unassigned) [Example 18]: the IC50 was found to be 4080 nM on human Factor XIa and 19.5 nM against Human plasma kallikrein.

Broadly, the IC50 is the midpoint of a concentration-inhibition curve. Read a low IC50 as higher potency.

The record behind these values is US20230286958A1, “PLASMA KALLIKREIN INHIBITORS” (Merck Sharp & Dohme LLC, priority 2020, published 2023).
